Assay results from ChEMBL document CHEMBL1155903, “Cytotoxic calanquinone A from Calanthe arisanensis and its first total synthesis” (Bioorg Med Chem Lett, 2008).
Values after ≈ are worked out from the molar mass of the structure shown. Active and inactive are the calls of the source. No cut-off for these calls is given here.

Key:
Assay type in all cases: functional, cell-based
A549 [1] = assay: Cytotoxicity against human A549 cells up to 20 ug/mL
PC-3 [2] = assay: Cytotoxicity against human PC3 cells up to 20 ug/mL
DU-145 [3] = assay: Cytotoxicity against human DU145 cells up to 20 ug/mL
HCT-8 [4] = assay: Cytotoxicity against human HCT8 cells up to 20 ug/mL
MCF7 [5] = assay: Cytotoxicity against human MCF7 cells up to 20 ug/mL
KB [6] = assay: Cytotoxicity against human KB cells up to 20 ug/mL
KBVIN = assay: Cytotoxicity against human KBVIN cells up to 20 ug/mL
A549 [7] = assay: Cytotoxicity against human A549 cells
PC-3 [8] = assay: Cytotoxicity against human PC3 cells
DU-145 [9] = assay: Cytotoxicity against human DU145 cells
HCT-8 [10] = assay: Cytotoxicity against human HCT8 cells
MCF7 [11] = assay: Cytotoxicity against human MCF7 cells
KB [12] = assay: Cytotoxicity against human KB cells
[13] = Cytotoxicity against human KBVIN cells
[14] = Homo sapiens, A549, read-out: EC50
[15] = Homo sapiens, PC-3, read-out: EC50
[16] = Homo sapiens, DU-145, read-out: EC50
[17] = Homo sapiens, KB, read-out: EC50
[18] = Homo sapiens, KBVIN, read-out: EC50

Structure (SMILES) | Activity (A549 [1]) | Activity (PC-3 [2]) | Activity (DU-145 [3]) | Activity (HCT-8 [4]) | Activity (MCF7 [5]) | Activity (KB [6]) | Activity (KBVIN) | EC50 (HCT-8 [10]) [µg/mL] | EC50 (KB [12]; [17]) [µg/mL] | further results
COc1cc2ccc3c(OC)cc(OC)c(OC)c3c2c(OC)c1OC | inactive | inactive | inactive | inactive | inactive | inactive | inactive |  |  | 
COC1=CC(=O)C(C=O)=C(c2c(C)cc(OC)c(OC)c2OC)C1=O | inactive | inactive | inactive | inactive | inactive | inactive | inactive |  |  | 
COC(=O)C1=C(c2c(C)cc(OC)c(OC)c2OC)C(=O)C(OC)=CC1=O |  |  |  |  |  |  |  | 5.85 (≈ 15.5 µM) | 4.02 (≈ 10.7 µM) | EC50 (A549 [7]; [14]): 6.12 µg/mL (≈ 16.3 µM); EC50 (PC-3 [8]; [15]): 6.09 µg/mL (≈ 16.2 µM); EC50 (DU-145 [9]; [16]): 4.74 µg/mL (≈ 12.6 µM); EC50 (MCF7 [11]): 6.4 µg/mL (≈ 17 µM); EC50 [13, 18]: 5.48 µg/mL (≈ 14.6 µM)
COc1cc(OC)c(OC)c(-c2c(C)cc(OC)c(OC)c2OC)c1C=O | inactive | inactive | inactive | inactive | inactive | inactive | inactive |  |  | 
COC1=CC(=O)c2ccc3ccccc3c2C1=O [ANNOQUINONE A] |  |  |  |  |  |  |  |  | 1.6 (≈ 6.72 µM) | 
COC1=CC(=O)c2ccc3cc(OC)c(OC)c(OC)c3c2C1=O |  |  |  |  |  |  |  | 15.2 (≈ 46.4 µM) | 8.08 (≈ 24.6 µM) | EC50 (A549 [7]; [14]): 7.06 µg/mL (≈ 21.5 µM); EC50 (PC-3 [8]; [15]): 7.81 µg/mL (≈ 23.8 µM); EC50 (DU-145 [9]; [16]): 4.4 µg/mL (≈ 13.4 µM); EC50 (MCF7 [11]): 5.33 µg/mL (≈ 16.2 µM); EC50 [13, 18]: 9.14 µg/mL (≈ 27.8 µM)
COC1=CC(=O)c2ccc3cc(OC)c(OC)c(O)c3c2C1=O [CALANQUINONE A] |  |  |  |  |  |  |  | 0.29 (≈ 0.923 µM) |  | EC50 (A549 [7]; a549): 0.31 µg/mL (≈ 0.986 µM); EC50 (PC-3 [8]; pc-3): 0.75 µg/mL (≈ 2.39 µM); EC50 (DU-145 [9]; du-145): 0.48 µg/mL (≈ 1.53 µM); EC50 (KB [12]; kb): 0.3 µg/mL (≈ 0.955 µM); EC50 ([13]; kbvin): 0.24 µg/mL (≈ 0.764 µM)
